Source: article PMC12892976, “Alkylation-based optimization of antifungal FPPS inhibitors yields a potent, broad-spectrum lipophilic zoledronate derivative” (mBio, 2025)
In brackets after ≈: the same amount, converted by molar mass. Read-outs that look alike come from different tables or passages of the source.

What was measured:
eight fungal species [1] = assay: MIC/MFC summary across the eight fungal species of Table 1; assay type: cell-based
Protocol: The antifungal activity of these compounds was evaluated according to CLSI guidelines ([16]).

Candida albicans [2] = assay: checkerboard drug interaction (FICI, MICc);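 for all read-outs here: antifungal plus FPPS inhibitor combinations on Candida albicans tested by a simplified diagonal checkerboard screen, with FICI calculated under the Loewe additivity model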; assay type: cell-based; settings: C. albicans; for INH FD (MIC-MICc fold decrease): fold decrease of inhibitor MIC
Protocol: (§1) Drug interactions between antifungals and FPPS inhibitors were investigated using a simplified checkerboard diagonal screening method ([45]). […] FICIs were determined according to the Loewe additivity model ([17]).

Candida albicans [3] = assay: MIC/MFC broth microdilution (CLSI); assay type: cell-based; settings: Candida albicans SC5314
Protocol: (§2) Antifungal susceptibility was determined by broth microdilution according to the CLSI guidelines described in M27-Ed4 ([16]). […] MFC was determined by back-plating drug-treated cultures from MIC broths onto SDA plates. The MFC was defined as the lowest concentration from which no colonies could be cultured.

Saccharomyces cerevisiae [4] = assay: MIC/MFC broth microdilution (CLSI); assay type: cell-based; settings: Saccharomyces cerevisiae S288c
Protocol: as §2

Aspergillus flavus [5] = assay: MIC/MFC broth microdilution (CLSI); settings: ATCC204304
Protocol: as §2

Cryptococcus neoformans [6] = assay: MIC/MFC broth microdilution (CLSI); settings: Cryptococcus neoformans;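 note: susceptibility testing followed the CLSI M27-Ed4 broth microdilution document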
Protocol: as §2

Candida glabrata [7] = assay: checkerboard drug interaction (FICI, MICc);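 for all read-outs here: simplified diagonal checkerboard screen pairing antifungals with FPPS inhibitors, FICI calculated under the Loewe additivity model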; assay type: cell-based; settings: C. glabrata; for INH FD (MIC-MICc fold decrease): fold decrease of inhibitor MIC
Protocol: as §1

[8] = test system: Cryptococcus deuterogattii; assay: MIC/MFC broth microdilution (CLSI); settings: Cryptococcus deuterogattii;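 note: broth microdilution per CLSI M27-Ed4. MFC is the lowest concentration yielding no colonies when MIC broths are subcultured onto SDA plates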
Protocol: as §2

[9] = test system: Cryptococcus deuterogattii; assay: checkerboard drug interaction (FICI, MICc);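 for all read-outs here: simplified diagonal checkerboard screen pairing antifungal drugs with FPPS inhibitors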; assay type: cell-based; settings: C. deuterogattii; for INH FD (MIC-MICc fold decrease): fold decrease of inhibitor MIC
Protocol: as §1

Aspergillus fumigatus [10] = assay: MIC/MFC broth microdilution (CLSI); settings: ATCC204305
Protocol: as §2

Aspergillus fumigatus [11] = assay: checkerboard drug interaction (FICI, MICc); assay type: cell-based;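 note: simplified diagonal checkerboard screen pairing antifungals with FPPS inhibitors against Aspergillus fumigatus, with FICI calculated under the Loewe additivity model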
Protocol: as §1

HEK-293T cells = assay: MTT reduction cytotoxicity assay; assay type: cell-based; settings: Homo sapiens, HEK-293T, 72 h, MTT, 72 h
Trichophyton rubrum [12] = assay: MIC/MFC broth microdilution (CLSI); settings: Trichophyton rubrum
Protocol: as §2

Aspergillus flavus [13] = assay: checkerboard drug interaction (FICI, MICc);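 note: simplified diagonal checkerboard screen pairing azole antifungals with FPPS inhibitors, FICI calculated under the Loewe additivity model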; assay type: cell-based; parameters: INH MICc (KET:INH) / INH MICc (FLC:INH): unit not given beside the values; settings: A. flavus
Candida glabrata [14] = assay: MIC/MFC broth microdilution (CLSI); settings: Nakaseomyces glabratus, CBS138;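 note: broth microdilution following CLSI M27-Ed4, MFC taken as the lowest drug level yielding no growth once MIC wells were subcultured on SDA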
Protocol: as §2

Trichophyton rubrum [15] = assay: checkerboard drug interaction (FICI, MICc);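 note: simplified diagonal checkerboard screen pairing azole antifungals with FPPS inhibitors, FICI calculated under the Loewe additivity model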; assay type: cell-based; settings: T. rubrum
Protocol: as §1

Saccharomyces cerevisiae [16] = assay: checkerboard drug interaction (FICI, MICc); assay type: cell-based; parameters: INH MICc / INH MICc (ITR:INH) / INH MICc (KET:INH) / INH MICc (FLC:INH): unit not given beside the values;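 note: simplified diagonal checkerboard screen pairing antifungals with FPPS inhibitors, FICI calculated under the Loewe additivity model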
eight fungal species [17] = assay: checkerboard interaction with azoles, summary across the eight species; assay type: cell-based; settings: geometric mean MIC in combination with azoles
Text: Synergy between lipophilic FPPS inhibitors and azole antifungals was investigated by determining the fractional inhibitory concentration index (FICI) (Fig. 2; Table S1 Fig. S1) ([17]). […]. Derivatives PLA9 and 11, and PDA9, 11, and 12 antagonized azoles in C. albicans, C. neoformans, and C. deuterogattii, yet were largely synergistic in C. glabrata and S. cerevisiae. […].

Cryptococcus neoformans [18] = assay: checkerboard drug interaction (FICI, MICc);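 for all read-outs here: antifungal plus FPPS inhibitor pairs tested against Cryptococcus neoformans by simplified diagonal checkerboard screening, FICI computed under the Loewe additivity model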; assay type: cell-based; settings: C. neoformans; for INH FD (MIC-MICc fold decrease): fold decrease of inhibitor MIC
Protocol: as §1

[19] = FLC:INH combination, MIC of the inhibitor in combination with FLC
[20] = FLC:INH combination, fold decrease of FLC MIC
[21] = ITR:INH combination, MIC of the inhibitor in combination with ITR
[22] = ITR:INH combination, fold decrease of ITR MIC
[23] = KET:INH combination, MIC of the inhibitor in combination with KET
[24] = KET:INH combination, fold decrease of KET MIC
[25] = Fractional Inhibitory Concentration Index, fluconazole + inhibitor
[26] = Fractional Inhibitory Concentration Index, itraconazole + inhibitor
[27] = Fractional Inhibitory Concentration Index, ketoconazole + inhibitor
[28] = MIC of the inhibitor in combination with fluconazole
[29] = MIC of the inhibitor in combination with itraconazole
[30] = MIC of the inhibitor in combination with ketoconazole
[31] = MIC-MICc fold decrease of fluconazole, negative = increase
[32] = MIC-MICc fold decrease of itraconazole, negative = increase
[33] = MIC-MICc fold decrease of ketoconazole, negative = increase
[34] = MIC-MICc fold decrease of the inhibitor, with fluconazole
[35] = MIC-MICc fold decrease of the inhibitor, with itraconazole
[36] = MIC-MICc fold decrease of the inhibitor, with ketoconazole

CCCCCCCCCCCCN1CCC[C@H]1C(=O)N[C@@H](CC(=O)OC)C(=O)OC [dmPLA12]
MFC (eight fungal species [1]; across eight species, read-out: Geometric mean MFC): 69.8 µg/mL (≈ 164 µM) | MIC (eight fungal species [1]; geometric mean across eight species, read-out: GM fungal MIC): 38.1 µg/mL (≈ 89.3 µM) | MIC (eight fungal species [1]; read-out: Geometric mean MIC): 38.1 µg/mL (≈ 89.3 µM) | FICI (Candida albicans [2]; FLC:INH combination): 1.06 | INH MICc (Candida albicans [2]; [19]): 8 | FLC FD (MIC-MICc fold decrease) (Candida albicans [2]; [20]): 1 | INH FD (MIC-MICc fold decrease) (Candida albicans [2]; FLC:INH combination): 16 | FICI (Candida albicans [2]; ITR:INH combination): ≥4 | INH MICc (Candida albicans [2]; [21]): 32 | ITR FD (MIC-MICc fold decrease) (Candida albicans [2]; [22]): -4 | INH FD (MIC-MICc fold decrease) (Candida albicans [2]; ITR:INH combination): 4 | FICI (Candida albicans [2]; KET:INH combination): 2.13 | INH MICc (Candida albicans [2]; [23]): 16 | KET FD (MIC-MICc fold decrease) (Candida albicans [2]; [24]): -2 | INH FD (MIC-MICc fold decrease) (Candida albicans [2]; KET:INH combination): 8 | MFC (Candida albicans [3]): > 128 µg/mL | MIC (Candida albicans [3]): > 128 µg/mL | MFC (Saccharomyces cerevisiae [4]): 4 µg/mL (≈ 9.38 µM) | MIC (Saccharomyces cerevisiae [4]): 4 µg/mL (≈ 9.38 µM) | MFC (Aspergillus flavus [5]): > 128 µg/mL | MIC (Aspergillus flavus [5]): > 128 µg/mL | MFC (Cryptococcus neoformans [6]): 16 µg/mL (≈ 37.5 µM) | MIC (Cryptococcus neoformans [6]): 16 µg/mL (≈ 37.5 µM) | FICI (Candida glabrata [7]; FLC:INH combination): 1 | INH MICc (Candida glabrata [7]; [19]): 8 | FLC FD (MIC-MICc fold decrease) (Candida glabrata [7]; [20]): 2 | INH FD (MIC-MICc fold decrease) (Candida glabrata [7]; FLC:INH combination): 2 | FICI (Candida glabrata [7]; ITR:INH combination): 0.38 | INH MICc (Candida glabrata [7]; [21]): 2 | ITR FD (MIC-MICc fold decrease) (Candida glabrata [7]; [22]): 4 | INH FD (MIC-MICc fold decrease) (Candida glabrata [7]; ITR:INH combination): 8 | FICI (Candida glabrata [7]; KET:INH combination): 0.75 | INH MICc (Candida glabrata [7]; [23]): 4 | KET FD (MIC-MICc fold decrease) (Candida glabrata [7]; [24]): 2 | INH FD (MIC-MICc fold decrease) (Candida glabrata [7]; KET:INH combination): 4 | MFC [8]: 8 µg/mL (≈ 18.8 µM) | MIC [8]: 8 µg/mL (≈ 18.8 µM) | FICI ([9]; FLC:INH combination): 0.38 | INH MICc [9, 19]: 16 | FLC FD (MIC-MICc fold decrease) [9, 20]: 4 | INH FD (MIC-MICc fold decrease) ([9]; FLC:INH combination): 8 | FICI ([9]; ITR:INH combination): 0.63 | INH MICc [9, 21]: 16 | ITR FD (MIC-MICc fold decrease) [9, 22]: 2 | INH FD (MIC-MICc fold decrease) ([9]; ITR:INH combination): 8 | FICI ([9]; KET:INH combination): 0.19 | INH MICc [9, 23]: 16 | KET FD (MIC-MICc fold decrease) [9, 24]: 16 | INH FD (MIC-MICc fold decrease) ([9]; KET:INH combination): 8 | MFC (Aspergillus fumigatus [10]): > 128 µg/mL | MIC (Aspergillus fumigatus [10]): 32 µg/mL (≈ 75 µM) | FICI (FLC:INH) (Aspergillus fumigatus [11]; [25]): 1.5 | FICI (ITR:INH) (Aspergillus fumigatus [11]; [26]): 0.52 | FICI (KET:INH) (Aspergillus fumigatus [11]; [27]): 1 | INH MICc (FLC:INH) (Aspergillus fumigatus [11]; [28]): 128 | INH MICc (ITR:INH) (Aspergillus fumigatus [11]; [29]): 2 | INH MICc (KET:INH) (Aspergillus fumigatus [11]; [30]): 64 | FLC FD (FLC:INH) (Aspergillus fumigatus [11]; [31]): 2 | ITR FD (ITR:INH) (Aspergillus fumigatus [11]; [32]): 2 | KET FD (KET:INH) (Aspergillus fumigatus [11]; [33]): 2 | INH FD (FLC:INH) (Aspergillus fumigatus [11]; [34]): 1 | INH FD (ITR:INH) (Aspergillus fumigatus [11]; [35]): 64 | INH FD (KET:INH) (Aspergillus fumigatus [11]; [36]): 2 | IC50 (HEK-293T cells; HEK-293T cells, read-out: IC50): 2.01 µg/mL (≈ 4.72 µM) | IC50 (HEK-293T cells; read-out: HEK IC50): 2.01 µg/mL (≈ 4.72 µM) | MFC (Trichophyton rubrum [12]): > 128 µg/mL | MIC (Trichophyton rubrum [12]): 16 µg/mL (≈ 37.5 µM) | FICI (FLC:INH) (Aspergillus flavus [13]; [25]): 1.5 | FICI (ITR:INH) (Aspergillus flavus [13]; [26]): 0.5 | FICI (KET:INH) (Aspergillus flavus [13]; [27]): 0.52 | INH MICc (FLC:INH) (Aspergillus flavus [13]; [28]): 128 | INH MICc (ITR:INH) (Aspergillus flavus [13]; [29]): 64 | INH MICc (KET:INH) (Aspergillus flavus [13]; [30]): 4 | FLC FD (FLC:INH) (Aspergillus flavus [13]; [31]): 1 | ITR FD (ITR:INH) (Aspergillus flavus [13]; [32]): 4 | KET FD (KET:INH) (Aspergillus flavus [13]; [33]): 2 | INH FD (FLC:INH) (Aspergillus flavus [13]; [34]): 2 | INH FD (ITR:INH) (Aspergillus flavus [13]; [35]): 4 | INH FD (KET:INH) (Aspergillus flavus [13]; [36]): 64 | MFC (Candida glabrata [14]): > 128 µg/mL | MIC (Candida glabrata [14]): > 128 µg/mL | FICI (FLC:INH) (Trichophyton rubrum [15]; [25]): 1.13 | FICI (ITR:INH) (Trichophyton rubrum [15]; [26]): 1.06 | FICI (KET:INH) (Trichophyton rubrum [15]; [27]): 1.13 | INH MICc (FLC:INH) (Trichophyton rubrum [15]; [28]): 16 | INH MICc (ITR:INH) (Trichophyton rubrum [15]; [29]): 16 | INH MICc (KET:INH) (Trichophyton rubrum [15]; [30]): 16 | FLC FD (FLC:INH) (Trichophyton rubrum [15]; [31]): 8 | ITR FD (ITR:INH) (Trichophyton rubrum [15]; [32]): 16 | KET FD (KET:INH) (Trichophyton rubrum [15]; [33]): 8 | INH FD (FLC:INH) (Trichophyton rubrum [15]; [34]): 1 | INH FD (ITR:INH) (Trichophyton rubrum [15]; [35]): 1 | INH FD (KET:INH) (Trichophyton rubrum [15]; [36]): 1 | FICI (FLC:INH) (Saccharomyces cerevisiae [16]; [25]): 0.75 | FICI (ITR:INH) (Saccharomyces cerevisiae [16]; [26]): 0.75 | FICI (KET:INH) (Saccharomyces cerevisiae [16]; [27]): 0.38 | INH MICc (FLC:INH) (Saccharomyces cerevisiae [16]; [28]): 2 | INH MICc (ITR:INH) (Saccharomyces cerevisiae [16]; [29]): 1 | INH MICc (KET:INH) (Saccharomyces cerevisiae [16]; [30]): 1 | FLC FD (FLC:INH) (Saccharomyces cerevisiae [16]; [31]): 4 | ITR FD (ITR:INH) (Saccharomyces cerevisiae [16]; [32]): 2 | KET FD (KET:INH) (Saccharomyces cerevisiae [16]; [33]): 8 | INH FD (FLC:INH) (Saccharomyces cerevisiae [16]; [34]): 2 | INH FD (ITR:INH) (Saccharomyces cerevisiae [16]; [35]): 4 | INH FD (KET:INH) (Saccharomyces cerevisiae [16]; [36]): 4 | GM fungal MICc (eight fungal species [17]): 11.3 | FICI (Cryptococcus neoformans [18]; FLC:INH combination): 3 | INH MICc (Cryptococcus neoformans [18]; [19]): 32 | FLC FD (MIC-MICc fold decrease) (Cryptococcus neoformans [18]; [20]): 1 | INH FD (MIC-MICc fold decrease) (Cryptococcus neoformans [18]; FLC:INH combination): -2 | FICI (Cryptococcus neoformans [18]; ITR:INH combination): 1.5 | INH MICc (Cryptococcus neoformans [18]; [21]): 16 | ITR FD (MIC-MICc fold decrease) (Cryptococcus neoformans [18]; [22]): 2 | INH FD (MIC-MICc fold decrease) (Cryptococcus neoformans [18]; ITR:INH combination): 1 | FICI (Cryptococcus neoformans [18]; KET:INH combination): 0.75 | INH MICc (Cryptococcus neoformans [18]; [23]): 8 | KET FD (MIC-MICc fold decrease) (Cryptococcus neoformans [18]; [24]): 4 | INH FD (MIC-MICc fold decrease) (Cryptococcus neoformans [18]; KET:INH combination): 2
